This note sets out measurements from ChEMBL document CHEMBL6096681, “Examining Arginase-1 Trimerization Uncovers a Promising Allosteric Site for Inhibition” (J Med Chem, 2025).

Assay [1] deals with T1, Arginase-1 (Homo sapiens) (UniProt P05089).
T1 sequence (whole entry): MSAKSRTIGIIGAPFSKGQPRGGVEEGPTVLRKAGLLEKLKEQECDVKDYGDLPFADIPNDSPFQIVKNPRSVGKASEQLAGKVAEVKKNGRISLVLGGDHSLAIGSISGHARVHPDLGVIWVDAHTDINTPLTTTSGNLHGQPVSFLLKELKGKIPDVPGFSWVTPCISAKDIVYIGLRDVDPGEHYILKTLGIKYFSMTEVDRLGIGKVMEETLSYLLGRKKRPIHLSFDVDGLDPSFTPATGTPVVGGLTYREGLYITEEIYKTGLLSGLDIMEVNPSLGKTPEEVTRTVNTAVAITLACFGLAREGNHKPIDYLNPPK
Briefly: Inhibition of full length N-terminal his6-tagged human ARG-1 expressed in Escherichia coli BL21 (DE3) cells upto 20 mM incubated for 24 hrs by coomassie blue staining based SDS/PAGE analysis.

Assay [2] deals with T1, Arginase-1 (Homo sapiens). Briefly: Binding affinity to full length N-terminal his6-tagged human ARG-1 expressed in Escherichia coli BL21 (DE3) cells assessed as thermal stabilization at 0.625 to 20 mM measured for 24 hrs by nanoDSF analysis. As to conditions: dose 0.625-20 mM.
In assay [3] the target is T1, Arginase-1 (Homo sapiens). Briefly: Inhibition of N-terminal his6-tagged truncated human ARG-1 expressed in Escherichia coli BL21 (DE3) cells at 10 mM incubated for 24 hrs.
Assay [4] has as its target T1, Arginase-1 (Homo sapiens). Briefly: Inhibition of full length N-terminal his6-tagged human ARG-1 expressed in Escherichia coli BL21 (DE3) cells at 10 mM incubated for 24 hrs relative to control.
Assay [5] has as its target T1, Arginase-1 (Homo sapiens). Briefly: Binding affinity to N-terminal his6-tagged truncated human ARG-1 expressed in Escherichia coli BL21 (DE3) cells assessed as thermal stabilization at 20 mM measured for 24 hrs by nanoDSF analysis.
The species named for a further assay is Homo sapiens. Briefly: Inhibition of full length N-terminal his6-tagged human ARG-1 R205A mutant expressed in Escherichia coli BL21 (DE3) cells by mass spectrometry analysis.

Activity calls are given as the source filed them. The calls are words filed in the database; no cut-off is given here.

A word on the inhibition: it is the drop in the measured response relative to a control, in per cent. Consider `O=CC(=O)c1ccccc1`, for which the inhibition result (in assay [1]; in assay [3]; in the assay listed under Homo sapiens) was “Active” each time. Further, the result in assay [2] and in assay [5] was Active. Besides, the inhibition in assay [4] came to 30%.
